Assay [1] deals with H929 cells and CD138+ primary MM cells. Briefly: qRT-PCR of B cell and PC markers in MM cells, liquid or BM stroma co-culture. It is filed as cell-based, human. As to the method: FIG. 3A-H depicts the relative concentration of plasma markers BCL6 (FIG. 3A and E), BLIMP-1 (FIG. 3B and F), XBPS-1 (FIG. 3C and G), and CHOP (FIG. 3D and H) in multiple myeloma (MM) cell lines H929 (FIG. 3A-D) or CD138+ MM cells from three different patient samples (FIG. 3E-H) incubated for 5 days either in the absence of stroma (Liquid), with or without AGN (RA receptor antagonist AGN194310, 1 μM), or co-cultured with BM mesenchymal cells (Stroma), with or without R115 (CYP26 inhibitor R115866, 1 μM) or IRX (CYP26-resistant retinoid IRX5183, 1 μM). Expression in untreated liquid conditions was set at 1. Data are representative of 3 independent experiments with similar results and represent the mean ±SEM. *P≤0.05 and **P≤0.01, by repeated-measures 1-way ANOVA for determination of statistical significance between groups; P values were corrected for multiple comparisons using Dunnett's test. Ctrl, control; max, maximum.
Coculture experiments. 24-well plates were coated with 0.1% gelatin in PBS for 30 min at 37° C. The gelatin solution was removed, and the stromal cells were cultured overnight at a density of 5×10^4 cells/well to obtain a confluent monolayer. At that time, MM cell lines or primary MM cells (1×10^5 in 2 ml) were added to the stroma cultures. The stroma cocultures were incubated at 37° C. in RPMI containing 10% FCS, L-glutamine, and P/S, with or without AGN194310 (1 μM for 5 days), R115866 (1 μM for 5 days), IRX5183 (1 μM for 5 days), or BTZ (2.5 nM for 48 hr).
qRT-PCR. Total RNA was extracted using the RNeasy Mini Kit (QIAGEN) according to the manufacturer's instructions. cDNA was synthesized by reverse transcription using the iScript cDNA Synthesis Kit (Bio-Rad). qRT-PCR was performed with iTaq SYBR Green Supermix (Bio-Rad) using sequence specific primers. Gene expression was normalized to GAPDH, and relative quantification was calculated using ΔΔCt. All experiments were performed in duplicate and run on the Bio-Rad CFX96 machine.
The BM microenvironment (also called “niche”) limits PC differentiation by modulating retinoid signaling. A population of MM progenitors, phenotypically similar to B cells, is intrinsically resistant to BTZ and contributes to MRD and relapse. To investigate whether the BM niche plays a role in determining the phenotype of MM cells, the mRNA expression of B cell and PC markers in MM H929 cell lines (FIG. 3A-D) and MM CD138+ primary cells (FIG. 3E-H) was analyzed following co-culture with mouse BM stroma using human-specific primers. […] In contrast, co-culture of MM cells with BM stroma decreased the mRNA expression of B lymphocyte-induced maturation protein 1 (BLIMP1) and spliced X box-binding protein 1 (XBP1s) (FIG. 3B, C, F, G), which are critical mediators of PC differentiation.
The BM niche regulates hematopoietic stem cell (HSC) differentiation by expressing the retinoid-inactivating enzyme CYP26. CYP26 enzymes were highly expressed in BM mesenchymal cells, while their expression was barely detectable in MM cells. Since retinoid signaling promotes PC differentiation and potentiates Ig secretion, it was determined whether stromal CYP26 is responsible for inducing a B cell phenotype in MM cells. To this end, co-culture conditions were treated with the CYP26 inhibitor R115866 (R115) or the CYP26-resistant RA receptor α-selective (RARα-selective) retinoid IRX5183 (IRX).

The subject of assay [2] is H929 Luc+ cells with WT or Smo-KO stroma. Briefly: subcutaneous xenograft model of MM-niche interactions, bioluminescence. It is filed as in vivo, mouse. The procedure: FIG. 9 depicts bioluminescent images of mice showing tumor burden during 4 weeks of treatment with IRX (10 mg/kg), BTZ (0.5 mg/kg), or the combination. Anterior tumors consisted of a combination of MM.1S luciferase^+ cells and Smo^FI/FI BM stroma cells transduced with a control vector (WT BM stroma). Posterior tumors consisted of a combination of MM.1S luciferase^+ cells and Smo^FI/FI BM stroma cells transduced with Cre-recombinase (Smo KO BM stroma).
FIG. 10 depicts the fold change in bioluminescence (photons/second) of tumors during 4 weeks of treatment. The change in bioluminescence for each tumor […].
Mouse xenografts. 1×10^6 H929 Luc+ cells and 1×10^6 mouse BM stromal cells were resuspended in 100 μl […]®, diluted with RPMI (1:1), and injected subcutaneously into 16-week-old male NSG mice. After 4 days, treatment with BTZ (0.5 mg/kg i.p. twice weekly) and IRX (10 mg/kg i.p. daily) was initiated. Tumor burden was assessed by bioluminescence using the In Vivo Imaging System (PerkinElmer). For imaging, mice were exposed to 120 mg/kg D-luciferin via intraperitoneal injection […] before imaging and were anesthetized using isoflurane. Images were analyzed with Living Image Software, version 2.5 (PerkinElmer), and data were quantified as photons/second.
To study to what extent an RA-low environment created by the BM stroma and enhanced by MM cells via paracrine Hedgehog signaling contributes to BTZ resistance, a xenograft model of MM-niche interactions was developed. Each mouse carried 2 subcutaneous tumors consisting of H929 Luc+ cells and either WT (anterior tumors) or Smo-KO stroma (posterior tumors). Mice were treated with IRX (10 mg/kg i.p. daily), BTZ (0.5 mg/kg i.p. twice weekly), or a combination of both. The growth of tumors bearing WT or Smo-KO stroma was not different in untreated or IRX-treated groups (FIGS. 9 and 10). […] While some tumors in the treatment group receiving combined IRX and BTZ appeared to have regressed completely, even after anatomical study, this was not the case for all the mice in this group.

For assay [3], the system named is Kasumi-1 cells. Briefly: CFU experiments, off and on stroma. It is filed as cell-based. Conditions: 10^−6 M ATRA, IRX5183, or 10^−7 M AM80. An excerpt:
(§1) Data across three independent experiments.

Assay [4] concerns NB4 cells. Briefly: CFU experiments, off and on stroma. It is filed as cell-based. The settings on record: 10^−7 M ATRA, IRX5183, or 10^−8 M AM80.
Text: as §1

Assay [5] concerns OCI-AML3 cells. Briefly: CFU experiments, off and on stroma. It is filed as cell-based. Conditions: 10^−6 M ATRA, IRX5183, or 10^−7 M AM80.
Text: as §1

In assay [6] the test system is RARα. Briefly: transactivation assay, agonist activity. The settings on record: RARα versus RARβ and RARγ, FIG. 1.
Text: Transactivation assays employ expression plasmids encoding the full length receptors RARα, RARβ, and RARγ. Reporter plasmids containing the herpes virus thymidine kinase promoter and the appropriate retinoic acid receptor response element (RAREs) are positioned upstream of an open coding region encoding firefly luciferase.

This is an account of results in patent publication US11786555B2, “RAR selective agonists in combination with immune modulators for cancer immunotherapy” (IO THERAPEUTICS, INC., priority 2017, dated 2023).

Structures are written as SMILES.

Take `CC1(C)CCC(C)(C)c2c1cc(C(=O)Nc1cc(F)c(C(=O)O)c(F)c1)c(O)c2Cl` [IRX5183]: the “expression of differentiation markers by qRT-PCR or flow cytometry” value in assay [1] (liquid conditions compared with BM stroma) is recorded as “induced comparable changes, irrespective of the presence or absence of BM stroma”. For the same compound, the “mRNA expression of B cell and PC markers (BCL6, BLIMP1, XBP1s, CHOP)” value in assay [1] (stroma co-cultures, 1 μM for 5 days) is reported as “restored all markers to levels comparable to those of liquid control conditions”. In addition, in assay [2] (IRX 10 mg/kg i.p. daily), the “growth of tumors bearing WT versus Smo-KO stroma” value was “not different”. In assay [2] (combination of IRX and BTZ, WT or Smo-KO stroma), the “tumor response (bioluminescence)” value was “significant and equivalent response, regardless of the phenotype of the stromal compartment”. Also, the “clonogenic growth (CFU), differentiation and elimination of AML” value in assay [3], in assay [4] and in assay [5] was “decrease in clonogenic growth compared to control” in each case. Further, the “agonist activity (transactivation)” value in assay [6] was “specifically activates RARα”.
